From PubChem BioAssay (NCI)
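Test compounds were applied to cells in 96-well plates for 48 hours at 5 doses. At the GI50, growth is halved. TGI is the concentration that stops growth completely.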

What was measured:
Assay in all cases: DTP human tumour cell line panel, 48 h
SK-MEL-2 melanoma = test system: SK-MEL-2 melanoma
K-562 leukemia = test system: K-562 leukemia
SF-539 CNS = test system: SF-539 CNS
SK-MEL-28 melanoma = test system: SK-MEL-28 melanoma
LOX IMVI melanoma = test system: LOX IMVI melanoma
NCI-H23 lung = test system: NCI-H23 lung
NCI/ADR-RES ovarian = test system: NCI/ADR-RES ovarian
NCI-H522 lung = test system: NCI-H522 lung
A549 NSCLC = test system: A549 NSCLC
HOP-62 NSCLC = test system: HOP-62 NSCLC
CCRF-CEM leukemia = test system: CCRF-CEM leukemia
TK-10 renal = test system: TK-10 renal
MDA-MB-435 = test system: MDA-MB-435
HCC-2998 colon = test system: HCC-2998 colon
M14 melanoma = test system: M14 melanoma
HCT-15 colon = test system: HCT-15 colon
SNB-19 CNS = test system: SNB-19 CNS
KM12 colon = test system: KM12 colon
A498 renal = test system: A498 renal
UACC-62 melanoma = test system: UACC-62 melanoma
OVCAR-3 ovarian = test system: OVCAR-3 ovarian
RXF 393 renal = test system: RXF 393 renal
OVCAR-8 ovarian = test system: OVCAR-8 ovarian
SF-295 CNS = test system: SF-295 CNS
SK-MEL-5 melanoma = test system: SK-MEL-5 melanoma
NCI-H226 lung = test system: NCI-H226 lung
MCF7 breast = test system: MCF7 breast
SN12C renal = test system: SN12C renal
SR leukemia = test system: SR leukemia
U251 CNS = test system: U251 CNS
HOP-92 NSCLC = test system: HOP-92 NSCLC
MDA-MB-231 breast = test system: MDA-MB-231 breast
MALME-3M melanoma = test system: MALME-3M melanoma
RPMI-8226 leukemia = test system: RPMI-8226 leukemia
CAKI-1 renal = test system: CAKI-1 renal
ACHN renal = test system: ACHN renal
OVCAR-4 ovarian = test system: OVCAR-4 ovarian
786-0 renal = test system: 786-0 renal
EKVX NSCLC = test system: EKVX NSCLC
HL-60(TB) leukemia = test system: HL-60(TB) leukemia
DU-145 prostate = test system: DU-145 prostate
PC-3 prostate = test system: PC-3 prostate
UACC-257 melanoma = test system: UACC-257 melanoma
HT29 colon = test system: HT29 colon
IGROV1 ovarian = test system: IGROV1 ovarian
OVCAR-5 ovarian = test system: OVCAR-5 ovarian
HS 578T breast = test system: HS 578T breast
MOLT-4 leukemia = test system: MOLT-4 leukemia
SF-268 CNS = test system: SF-268 CNS
SW-620 colon = test system: SW-620 colon
T-47D breast = test system: T-47D breast
SK-OV-3 ovarian = test system: SK-OV-3 ovarian
BT-549 breast = test system: BT-549 breast
NCI-H460 lung = test system: NCI-H460 lung
UO-31 renal = test system: UO-31 renal
COLO 205 colon = test system: COLO 205 colon
HCT-116 colon = test system: HCT-116 colon
SNB-75 CNS = test system: SNB-75 CNS

Structure (SMILES): COc1cc2c3c(n(CCCN4CCCC4)c(=O)c2cc1OC)-c1cc2c(cc1C3=O)OCO2
- GI50 (SK-MEL-2 melanoma): 17100 nM
- TGI (SK-MEL-2 melanoma): 33600 nM
- GI50 (K-562 leukemia): 216 nM
- TGI (K-562 leukemia): 895 nM
- GI50 (SF-539 CNS): 1320 nM
- TGI (SF-539 CNS): 2770 nM
- GI50 (SK-MEL-28 melanoma): 1710 nM
- TGI (SK-MEL-28 melanoma): 3380 nM
- GI50 (LOX IMVI melanoma): 680 nM
- TGI (LOX IMVI melanoma): 2290 nM
- GI50 (NCI-H23 lung): 1630 nM
- TGI (NCI-H23 lung): 3980 nM
- GI50 (NCI/ADR-RES ovarian): 1350 nM
- TGI (NCI/ADR-RES ovarian): 3680 nM
- GI50 (NCI-H522 lung): 789 nM
- TGI (NCI-H522 lung): 2520 nM
- GI50 (A549 NSCLC): 1400 nM
- TGI (A549 NSCLC): 2850 nM
- GI50 (HOP-62 NSCLC): 650 nM
- TGI (HOP-62 NSCLC): 2460 nM
- GI50 (CCRF-CEM leukemia): 67.3 nM
- TGI (CCRF-CEM leukemia): 2310 nM
- GI50 (TK-10 renal): 1930 nM
- TGI (TK-10 renal): 3460 nM
- GI50 (MDA-MB-435): 1590 nM
- TGI (MDA-MB-435): 3120 nM
- GI50 (HCC-2998 colon): 1380 nM
- TGI (HCC-2998 colon): 2800 nM
- GI50 (M14 melanoma): 1500 nM
- TGI (M14 melanoma): 3010 nM
- GI50 (HCT-15 colon): 1430 nM
- TGI (HCT-15 colon): 3100 nM
- GI50 (SNB-19 CNS): 1540 nM
- TGI (SNB-19 CNS): 3720 nM
- GI50 (KM12 colon): 1610 nM
- TGI (KM12 colon): 3230 nM
- GI50 (A498 renal): 5530 nM
- TGI (A498 renal): 10800 nM
- GI50 (UACC-62 melanoma): 1480 nM
- TGI (UACC-62 melanoma): 3480 nM
- GI50 (OVCAR-3 ovarian): 1570 nM
- TGI (OVCAR-3 ovarian): 2980 nM
- GI50 (RXF 393 renal): 1490 nM
- TGI (RXF 393 renal): 2950 nM
- GI50 (OVCAR-8 ovarian): 1360 nM
- TGI (OVCAR-8 ovarian): 3090 nM
- GI50 (SF-295 CNS): 223 nM
- TGI (SF-295 CNS): 2010 nM
- GI50 (SK-MEL-5 melanoma): 4250 nM
- TGI (SK-MEL-5 melanoma): 9120 nM
- GI50 (NCI-H226 lung): 5870 nM
- TGI (NCI-H226 lung): 20500 nM
- GI50 (MCF7 breast): 228 nM
- TGI (MCF7 breast): 2210 nM
- GI50 (SN12C renal): 1650 nM
- TGI (SN12C renal): 3380 nM
- GI50 (SR leukemia): 51.4 nM
- TGI (SR leukemia): 590 nM
- GI50 (U251 CNS): 1180 nM
- TGI (U251 CNS): 2480 nM
- GI50 (HOP-92 NSCLC): 1930 nM
- TGI (HOP-92 NSCLC): 3940 nM
- GI50 (MDA-MB-231 breast): 1650 nM
- TGI (MDA-MB-231 breast): 3310 nM
- GI50 (MALME-3M melanoma): 1500 nM
- TGI (MALME-3M melanoma): 3220 nM
- GI50 (RPMI-8226 leukemia): 1250 nM
- TGI (RPMI-8226 leukemia): 4500 nM
- GI50 (CAKI-1 renal): 1160 nM
- TGI (CAKI-1 renal): 2450 nM
- GI50 (ACHN renal): 1360 nM
- TGI (ACHN renal): 2670 nM
- GI50 (OVCAR-4 ovarian): 1770 nM
- TGI (OVCAR-4 ovarian): 3380 nM
- GI50 (786-0 renal): 1320 nM
- TGI (786-0 renal): 2900 nM
- GI50 (EKVX NSCLC): 1950 nM
- TGI (EKVX NSCLC): 3960 nM
- GI50 (HL-60(TB) leukemia): 677 nM
- TGI (HL-60(TB) leukemia): 1890 nM
- GI50 (DU-145 prostate): 1310 nM
- TGI (DU-145 prostate): 2580 nM
- GI50 (PC-3 prostate): 1470 nM
- TGI (PC-3 prostate): 3840 nM
- GI50 (UACC-257 melanoma): 1490 nM
- TGI (UACC-257 melanoma): 3210 nM
- GI50 (HT29 colon): 1320 nM
- TGI (HT29 colon): 2760 nM
- GI50 (IGROV1 ovarian): 1420 nM
- TGI (IGROV1 ovarian): 3090 nM
- GI50 (OVCAR-5 ovarian): 1900 nM
- TGI (OVCAR-5 ovarian): 3500 nM
- GI50 (HS 578T breast): 2030 nM
- TGI (HS 578T breast): 5080 nM
- GI50 (MOLT-4 leukemia): < 17.9 nM
- TGI (MOLT-4 leukemia): 1610 nM
- GI50 (SF-268 CNS): 650 nM
- TGI (SF-268 CNS): 2370 nM
- GI50 (SW-620 colon): 624 nM
- TGI (SW-620 colon): 3450 nM
- GI50 (T-47D breast): 4700 nM
- TGI (T-47D breast): 11100 nM
- GI50 (SK-OV-3 ovarian): 795 nM
- TGI (SK-OV-3 ovarian): 2460 nM
- GI50 (BT-549 breast): 1400 nM
- TGI (BT-549 breast): 3490 nM
- GI50 (NCI-H460 lung): 206 nM
- TGI (NCI-H460 lung): 2240 nM
- GI50 (UO-31 renal): 1430 nM
- TGI (UO-31 renal): 2850 nM
- GI50 (COLO 205 colon): 1110 nM
- TGI (COLO 205 colon): 2550 nM
- GI50 (HCT-116 colon): 1140 nM
- TGI (HCT-116 colon): 2690 nM
- GI50 (SNB-75 CNS): 286 nM
- TGI (SNB-75 CNS): 1960 nM
